This is an account of results in US20240368096A1 (Enanta Pharmaceuticals, Inc., priority 2022, published 2024).

The structures appear in SMILES notation.

The test system of the assay is HBV. Description: HBV infection in HepG2-NTCP cells (HBeAg AlphaLISA in supernatants). To be noted: Hepatitis B virus, 192 h; HBV infection of HepG2-NTCP cells; HBeAg in supernatants at day 8 post infection; read-out: Cellular EC50. It counts as cell-based. The method, then: HepG2-NTCP A3 cells were maintained in DMEM media supplemented with GlutaMAX™ 10% fetal bovine serum, 1% penicillin/streptomycin, and 5 μg/mL puromycin at 37° C. in a humidified atmosphere with 5% CO2 in a collagen-coated tissue culture flask.
HepG2-NTCP cells were seeded in 384 well plate containing 16,000 cells/well two days prior to the infection. On the day of infection, compounds were 3-fold serially diluted in DMSO and pre-incubated with HepG2-NTCP cells for two hours before purified HBV addition. HBV infection was carried out at 2000 GE/cell with 4% PEG, and the final concentration of DMSO is 0.5%. On day one post infection, HBV-containing media was aspirated, cells were washed once with PBS and then maintained in 2.5% DMSO containing media for the remainder of the assay.
Supernatants from infected HepG2-NTCP cells were collected at day 8 post infection, and the amount of viral antigen HBeAg was measured by HBeAg AlphaLISA detection kit (PerkinElmer) following the manufacturer's recommended protocol. Irrespective of readout, compound concentrations that reduce viral product accumulation in supernatants by […] relative to DMSO controls (EC50) are reported. EC50 ranges are as follows: A<0.1 μM; B 0.1-1 μM; C>1 μM.
In general terms: In Alpha technology, singlet oxygen from a donor bead excites a nearby acceptor bead.
In the case of `CC(C)CS(=O)(=O)Nc1ccc(-c2cc3c(cc2Cl)N(c2ccccc2)C[C@@H](C2CCCCC2)N(C)S3(=O)=O)cc1C(=O)O` [Example 267, (R)-5-(7-chloro-3-cyclohexyl-2-methyl-1,1-dioxido-5-phenyl-2,3,4,5-tetrahydrobenzo[f][1,2,5]thiadiazepin-8-yl)-2-((2-methylpropyl)sulfonamido)benzoic acid], the EC50 (in general, the concentration that produces a half-maximal response) is < 100 nM.

Take `CN1C(CC(F)(F)F)CN(c2ccccc2)c2cc(Cl)c(-c3ccc(F)c(C(=O)O)c3)cc2S1(=O)=O` (centres unmarked) [Example 69]: the EC50 was > 1000 nM.

On to `CCCC[C@@H]1CN(c2ccccc2)c2cc(Oc3ccccc3C(F)(F)F)c(-c3ccc(F)c(C(=O)O)c3)cc2S(=O)(=O)N1C` [Example 419], for which the EC50 is < 100 nM.

`CC(C)CCCCOc1cc2c(cc1-c1ccc(F)c(C(=O)O)c1)S(=O)(=O)N(C)[C@H](C1CCCCC1)CN2c1ccccc1` [Example 361]: the EC50 is < 100 nM.

On to `CN1[C@H](C2CCC2)CN(c2ccccc2)c2cc(Cl)c(-c3cccc(C(=O)C(=O)O)c3)cc2S1(=O)=O` [Example 206], for which the EC50 was < 100 nM.

In the case of `CN1[C@H](CC2CC2)CN(c2ccccc2)c2cc(Cl)c(-c3cncc(C(=O)O)c3)cc2S1(=O)=O` [Example 74], the EC50 is > 1000 nM.

Take `COc1ccccc1Oc1cc2c(cc1-c1ccc(F)c(C(=O)O)c1)S(=O)(=O)N(C)[C@H](CC(C)C)CN2c1ccccc1` [Example 428]: the EC50 was < 100 nM.

Take `CN1[C@@H](CC2CCCCC2)CN(c2ccccc2)c2cc(Cl)c(-c3cccc(C(=O)O)c3)cc2S1(=O)=O` [Example 43]: the EC50 was > 1000 nM.

For the compound `CN1[C@H](C2CCCCC2)CN(c2ccccc2)c2cc(Cl)c([C@H]3C[C@@H](C(=O)O)C3)cc2S1(=O)=O` [Example 607, (1S,3s)-3-((R)-7-chloro-3-cyclohexyl-2-methyl-1,1-dioxido-5-phenyl-2,3,4,5-tetrahydrobenzo[f][1,2,5]thiadiazepin-8-yl)cyclobutane-1-carboxylic acid], the EC50 is > 1000 nM.

As for `CCC[C@@H]1CN(c2ccccc2)c2cc(Cl)c(-c3ccc(F)c(C(=O)O)c3)cc2S(=O)(=O)N1C` [Example 47], the EC50 was in the range of 100 to 1000 nM.

`COC(=O)c1noc2ccc(-c3cc4c(cc3Cl)N(c3ccccc3)C[C@@H](CC(C)C)N(C)S4(=O)=O)cc12` [Example 182]: the concentration for a half-maximal effect (EC50) was in the range of 100 to 1000 nM.

On to `CN1[C@H](C2CCC2)CN(c2ccccc2)c2cc(OCC(F)(F)F)c(-c3ccc(F)c(C(=O)O)c3)cc2S1(=O)=O` [Example 464], for which the 50% effective concentration (EC50) fell in the range of 100 to 1000 nM.

Consider `CCOc1cc2c(cc1-c1ccc(F)c(C(=O)O)c1)S(=O)(=O)N(C)[C@H](C1CCCCC1)CN2c1ccccc1` [Example 349], for which the EC50 is < 100 nM.

Consider `CSc1cc2c(cc1-c1cccc(C(=O)O)c1)S(=O)(=O)N1Cc3ccccc3C1CN2c1ccccc1` (centres unmarked) [Example 22], for which the EC50 was > 1000 nM.

On to `CC(C)C[C@@H]1CN(c2ccccc2)c2cc(-c3cccc4ncoc34)c(-c3ccc(F)c(C(=O)O)c3)cc2S(=O)(=O)N1C` [Example 578], for which the concentration giving a half-maximal response (EC50) lay within 100 to 1000 nM.

Take `CCCC[C@H]1CN(c2ccccc2)c2cc(N(C)C)c(-c3cccc(C(=O)O)c3)cc2S(=O)(=O)N1C` [Example 542]: the EC50 was > 1000 nM.

Turning to `CC(C)C[C@@H]1CN(C(C)C)c2cc(Nc3ccccc3F)c(-c3ccc(F)c(C(=O)O)c3)cc2S(=O)(=O)N1C` [Example 561], the EC50 was 100 to 1000 nM.

In the case of `CC(C)[C@@H]1CN(c2ccccc2)c2cc(Cl)c(-c3cc(F)c(C(=O)O)s3)cc2S(=O)(=O)N1C` [Example 120], the EC50 is < 100 nM.

With `COCCOc1cc2c(cc1-c1cc(NC(=O)OCCOC(C)C)c(C(=O)O)s1)S(=O)(=O)N(C)[C@H](C1CCCCC1)CN2c1ccccc1` [Example 518, (R)-5-(3-cyclohexyl-7-(2-methoxyethoxy)-2-methyl-1,1-dioxido-5-phenyl-2,3,4,5-tetrahydrobenzo[f][1,2,5]thiadiazepin-8-yl)-3-(((2-isopropoxyethoxy)carbonyl)amino)thiophene-2-carboxylic acid], the EC50 was < 100 nM.

On to `CC(C)CCOc1cc2c(cc1-c1ccc(F)c(C(=O)O)c1)S(=O)(=O)N(C)[C@H](C1CCCCC1)CN2c1ccccc1` [Example 359], for which the EC50 is < 100 nM.

With `CN1[C@H](CO)CN(c2ccccc2)c2cc(Cl)c(-c3ccc(F)c(C(=O)O)c3)cc2S1(=O)=O` [Example 98, (S)-5-(7-chloro-3-(hydroxymethyl)-2-methyl-1,1-dioxido-5-phenyl-2,3,4,5-tetrahydrobenzo[f][1,2,5]thiadiazepin-8-yl)-2-fluorobenzoic acid], the EC50 is > 1000 nM.

On to `CN1[C@@H](Cc2ccc(Cl)cc2)CN(c2ccccc2)c2cc(C#N)c(-c3cccc(C(=O)O)c3)cc2S1(=O)=O` [Example 13], for which the EC50 is > 1000 nM.

Consider `CN1[C@H](C2CCCCC2)CNc2cc(C3CCN(C(=O)OC(C)(C)C)CC3)c(-c3ccc(F)c(C(=O)O)c3)cc2S1(=O)=O` [Example 584, (R)-5-(7-(1-(tert-butoxycarbonyl)piperidin-4-yl)-3-cyclohexyl-2-methyl-1,1-dioxido-2,3,4,5-tetrahydrobenzo[f][1,2,5]thiadiazepin-8-yl)-2-fluorobenzoic acid], for which the EC50 was in the range of 100 to 1000 nM.

`CO[C@@H]1CCN(c2cc3c(cc2-c2ccc(F)c(C(=O)O)c2)S(=O)(=O)N(C)[C@H](C2CCCCC2)CN3c2ccccc2)C1` [Example 531]: the EC50 was < 100 nM.

On to `C=CC[C@H]1CN(c2ccccc2)c2cc(Cl)c(-c3cccc(C(=O)O)c3)cc2S(=O)(=O)N1C` [Example 40], for which the EC50 is > 1000 nM.

For `CN1[C@H](C2CCCCC2)CN(c2ccccc2)c2cc(Cl)c(-c3cnc(O)c(C(=O)O)c3)cc2S1(=O)=O` [Example 193], the EC50 is 100 to 1000 nM.

As for `CN1[C@H](C2CCCCC2)CN(c2ccccc2)c2cc(Cl)c(-c3ccc(NC(=O)Nc4ccccc4)c(C(=O)O)c3)cc2S1(=O)=O` [Example 237, (R)-5-(7-chloro-3-cyclohexyl-2-methyl-1,1-dioxido-5-phenyl-2,3,4,5-tetrahydrobenzo[f][1,2,5]thiadiazepin-8-yl)-2-(3-phenylureido)benzoic acid], the half-maximal effective concentration (EC50) was < 100 nM.

In the case of `COC1CCN(c2cc3c(cc2-c2ccc(Cl)c(C(=O)O)c2)S(=O)(=O)N(C)[C@H](C2CCCCC2)CN3c2ccccc2)CC1` [Example 559], the EC50 was in the range of 100 to 1000 nM.

Regarding `CC(C)C[C@@H]1CN(c2ccccc2)c2cc(Oc3ccc(Cl)cc3)c(-c3ccc(F)c(C(=O)O)c3)cc2S(=O)(=O)N1C` [Example 433], the EC50 was 100 to 1000 nM.

For the compound `CN1[C@H](C2CCCCC2)CNc2cc(-c3ccncc3)c(-c3ccc(F)c(C(=O)O)c3)cc2S1(=O)=O` [Example 570], the EC50 was > 1000 nM.

With `CN1[C@H](C2CCCCC2)CN(c2ccccc2)c2cc(Cl)c(-c3cc(C(=O)O)c(Cl)s3)cc2S1(=O)=O` [Example 123], the EC50 is < 100 nM.

For `CN1[C@H](C2CCCCC2)CN(c2ccccc2)c2cc(OCc3ncco3)c(-c3ccc(F)c(C(=O)O)c3)cc2S1(=O)=O` [Example 344], the EC50 was < 100 nM.

As to `CN1[C@H](C2CCCCC2)CN(c2ccccc2)c2cc(Cl)c(-c3nc(C(=O)O)co3)cc2S1(=O)=O` [Example 131, (R)-2-(7-chloro-3-cyclohexyl-2-methyl-1,1-dioxido-5-phenyl-2,3,4,5-tetrahydrobenzo[f][1,2,5]thiadiazepin-8-yl)oxazole-4-carboxylic acid], the EC50 fell in the range of 100 to 1000 nM.

On to `CC(C)COc1cc2c(cc1-c1ccc(F)c(C(=O)O)c1)S(=O)(=O)N(C)[C@H](C1CCCCC1)CN2c1ccccc1` [Example 358], for which the EC50 was < 100 nM.

For the compound `CCCCCCCC[C@@H]1CN(c2ccccc2)c2cc(Cl)c(-c3ccc(C(=O)O)s3)cc2S(=O)(=O)N1C` [Example 84], the EC50 is > 1000 nM.

Turning to `CN1[C@H](C2CCCCC2)CN(c2ccccc2)c2cc(OCCCc3cscn3)c(-c3ccc(F)c(C(=O)O)c3)cc2S1(=O)=O` [Example 347], the EC50 was < 100 nM.

`CCCCCOc1cc2c(cc1-c1ccc(F)c(C(=O)O)c1)S(=O)(=O)N(C)[C@H](C1CCCCC1)CN2c1ccccc1` [Example 351]: the EC50 was < 100 nM.

Regarding `CC(C)C[C@@H]1CN(c2ccccc2)c2cc(OCc3cocn3)c(-c3ccc(F)c(C(=O)O)c3)cc2S(=O)(=O)N1C` [Example 462], the EC50 is < 100 nM.

For the compound `CC(C)C[C@@H]1CN(C2CC2)c2cc(Oc3ccccc3F)c(-c3ccc(F)c(C(=O)O)c3)cc2S(=O)(=O)N1C` [Example 471], the EC50 is 100 to 1000 nM.

`CN1[C@H](C2CCCCC2)CN(c2cnc(C(F)(F)F)nc2)c2cc(Cl)c(-c3ccc(F)c(C(=O)O)c3)cc2S1(=O)=O` [Example 288]: the EC50 lay within 100 to 1000 nM.

Take `CCCC[C@H]1CN(c2ccccc2)c2cc(N(C)c3ccc(F)cc3)c(-c3cccc(C(=O)O)c3)cc2S(=O)(=O)N1C` [Example 541]: the concentration for a half-maximal effect (EC50) is > 1000 nM.

As to `COc1cc(-c2cc3c(cc2Cl)N(c2ccccc2)C[C@@H](C2CCCCC2)N(C)S3(=O)=O)cc(C(=O)O)c1NC(=O)OCC(C)C` [Example 278], the EC50 is < 100 nM.

On to `CCCCCOC(=O)Nc1cc(-c2cc3c(cc2Cl)N(c2ccccc2)C[C@@H](C2CCCCC2)N(C)S3(=O)=O)sc1C(=O)O` [Example 247], for which the concentration for a half-maximal effect (EC50) is < 100 nM.

For the compound `CN1[C@H](C2CCCCC2)CN(c2ccccc2)c2cc(N3CCN(S(C)(=O)=O)CC3)c(-c3ccc(F)c(C(=O)O)c3)cc2S1(=O)=O` [Example 536], the EC50 lay in the range of 100 to 1000 nM.
